These results are taken from the supplement of paper PMC11061612.

In assay [1] the test system is NCI-H1838 (Lung Adenocarcinoma). In words: Bliss excess, mean over the matrix (fraction); higher = more synergy. A digest of the protocol:
(§1)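 Bliss excess equals the observed combination effect minus the expected value EA + EB − EA·EB, where EA and EB are the effects of each agent alone. Combination Emax is the second-highest inhibition within the matrix. Inhibition was scaled from CellTiter-Glo 2.0 luminescence, with 0 set by vehicle wells and 1 by blank wells, after 72 hours of two-drug dosing of cells plated in 1536-well plates.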

Assay [2] has as its system OACM5-1 (Esophageal Adenocarcinoma). The assay is described as above. An outline of the steps:
as §1

The test system of assay [3] is G-401 (Other Solid Carcinomas). Described as above. An outline of the steps:
as §1

Assay [4] concerns Hey (Ovarian Carcinoma). Described as above. An outline of the steps: as §1
In assay [5] the test system is HCC1937 (Breast Carcinoma). The assay is described as above. An outline of the steps:
as §1

Assay [6] has as its system HCC2998 (Colorectal Carcinoma). The assay is described as above. A digest of the protocol:
as §1

Assay [7] relates to NCI-H1838 (Lung Adenocarcinoma). In words: combination Emax (second highest fraction inhibited in the dose matrix, 72 h); higher = more inhibition; extreme values may be limits of the assay. An outline of the steps:
as §1

The subject of assay [8] is EW-1 (Ewing's Sarcoma). The assay is described as above. An outline of the steps: as §1
The subject of assay [9] is ALL-SIL (T-Lymphoblastic Leukemia). Described as above. An outline of the steps: as §1
Assay [10] relates to LC-1-sq (Squamous Cell Lung Carcinoma). The assay is described as above. An outline of the steps:
as §1

Assay [11] deals with SK-LU-1 (Lung Adenocarcinoma). The description is as above. An outline of the steps: as §1
In assay [12] the test system is CADO-ES1 (Ewing's Sarcoma). Described as above. An outline of the steps:
as §1

Assay [13] concerns NCI-H650 (Lung Adenocarcinoma). The description is as above. A digest of the protocol:
as §1

For assay [14], the system named is OACM5-1 (Esophageal Adenocarcinoma). The description is as above. A digest of the protocol:
as §1

The subject of assay [15] is EJM (Plasma Cell Myeloma). The description is as above. An outline of the steps:
as §1

The test system of assay [16] is G-401 (Other Solid Carcinomas). The assay is described as above. A digest of the protocol:
as §1

In assay [17] the test system is Hey (Ovarian Carcinoma). The assay is described as above. A digest of the protocol: as §1
The test system of assay [18] is HCC1937 (Breast Carcinoma). Described as above. A digest of the protocol: as §1
For assay [19], the system named is HCC1500 (Breast Carcinoma). The assay is described as above. An outline of the steps: as §1
For assay [20], the system named is NCI-H1092 (Small Cell Lung Carcinoma). Described as above. An outline of the steps: as §1

Regarding `C[C@@H](c1ccc2nccn2c1)n1nnc2ncc(-c3cnn(C)c3)nc21` [Savolitinib] + CC1(C)CCC(CN2CCN(c3ccc(C(=O)NS(=O)(=O)c4ccc(NCC5CCOCC5)c([N+](=O)[O-])c4)c(Oc4cnc5[nH]ccc5c4)c3)CC2)=C(c2ccc(Cl)cc2)C1 [Venetoclax] (first compound max 1 µM, 7x7, partner max 1 µM), the Bliss excess in [1] was -0.049; in assay [2] it was -0.0637; in assay [3] it was -0.0528; in assay [4], -0.0651; in [5], -0.0884; in assay [6], -0.0866. Moreover, the “combination Emax” value in assay [7] turned out to be 0.146; in assay [8], 0.112; in assay [9] it was 0.675; in [10], 0.116; in assay [11], 0.273; in assay [12], 0.695. Besides, the “combination Emax” value was found to be 0.0996 in assay [13]; 0.166 in [14]; 0.232 in [15]; 0.104 in assay [16]; 0.0566 in assay [17]; 0.165 in assay [18]. In addition, the entries for the “combination Emax” value in assay [19] and in assay [20] were 0.629 and 0.248, respectively.

Take `C[C@@H](c1ccc2nccn2c1)n1nnc2ncc(-c3cnn(C)c3)nc21` [Savolitinib] + Cc1c2c(nn1C)CSCc1cc(n(C)n1)CSc1cc(c3ccccc3c1)OCCCc1c(C(=O)O)n(C)c3c-2c(Cl)ccc13 [AZD5991] (first compound max 1 µM, 7x7, partner max 1 µM): the Bliss excess is 0.0218 in [1]; -0.0598 in assay [2]; -0.0047 in [3]; -0.0321 in [4]; -0.0386 in [5]; -0.0463 in [6]. The “combination Emax” value in assay [7] was found to be 0.28; in assay [8], 0.2; in [9], 0.264; in [10] it was 0.278; in assay [11], 0.329; in [12], 0.346. The “combination Emax” value is 0.2 in assay [13]; 0.896 in assay [14]; 0.232 in [15]; 0.295 in assay [16]; 0.127 in [17]; 0.182 in [18]. Besides, the “combination Emax” value in [19] was 0.428; in [20] it was 0.46.
